What was measured:
leukotriene B4 (LTB4) = assay: Ex vivo LTB4 in blood by ELISA, Phase 2 ACS study; set-up: species or system human; conditions: trough drug levels
Protocol: (§1) In this randomized, placebo-controlled study, 191 patients were randomized 3 weeks after an acute coronary syndrome (ACS) to receive 25, 50, or 100 mg N-[3-[5-[(4-fluorophenyl)methyl]-2-thienyl]-1-methyl-2-propynyl]-N-hydroxyurea or placebo qd for 12 weeks. Baseline assessments were performed at the start of treatment and these baseline results were compared with repeat assessments during various follow-up periods during the treatment study. A subset of 93 patients who had undergone a Multidetector (64 slice coronary) Computerized Tomography (MDCT) examination at baseline continued on study medication for a total of 24 weeks and underwent a repeat scan. Patients received a single daily oral dose of 25 mg, 50 mg, or 100 mg of N-[3-[5-[(4-fluorophenyl)methyl]-2-thienyl]-1-methyl-2-propynyl]-N-hydroxyurea or matching placebo by administering 2 capsules as prepared in Example 3 for 12 weeks or 24 weeks. Blood samples for measurement of ex vivo leukotriene B4 (LTB4) and high sensitivity C reactive protein (hsCRP), and urine samples for measurement of urinary leukotriene E4 (LTE4) levels were collected pre-dose on weeks 2, 6 and 12. Blood samples were assayed for ex vivo LTB4 by enzyme-linked immunosorbent assay, and for hsCRP by an immunoturbidimetric method. Urine samples were assayed for LTE4 using Liquid Chromatography with Tandem Mass Spectrometry (LC/MS/MS).

leukotriene E4 (LTE4) = assay: Urinary LTE4 by LC/MS/MS, Phase 2 ACS study; format: in vivo, human; conditions: all doses (25, 50, 100 mg qd)
Protocol: as §1

[1] = test system: high sensitivity C reactive protein (hsCRP); assay: hsCRP in blood by immunoturbidimetric method, Phase 2 ACS study; format: in vivo, human
Protocol: as §1

non-calcified plaque = assay: Coronary plaque by MDCT (64-slice CT), Phase 2 ACS study, 24-week substudy; format: in vivo, human; conditions: all three doses, serial MDCT images at 24 weeks
Protocol: In this randomized, placebo-controlled study, 191 patients were randomized 3 weeks after an acute coronary syndrome (ACS) to receive 25, 50, or 100 mg N-[3-[5-[(4-fluorophenyl)methyl]-2-thienyl]-1-methyl-2-propynyl]-N-hydroxyurea or placebo qd for 12 weeks. Baseline assessments were performed at the start of treatment and these baseline results were compared with repeat assessments during various follow-up periods during the treatment study. A subset of 93 patients who had undergone a Multidetector (64 slice coronary) Computerized Tomography (MDCT) examination at baseline continued on study medication for a total of 24 weeks and underwent a repeat scan. For those patients who continued on study medication for a total of 24 weeks, contrast-enhanced CT examination was performed at baseline and after 24 weeks of treatment with a 64-slice scanner (GE LightSpeed VCT; GE Healthcare, USA). Target plaque lesions were defined prospectively as non-calcified plaque with measurable low-density components of <60 HU situated in the proximal or middle portion of either the left main, left anterior ascending, left circumflex or right coronary artery causing at least 20% luminal stenosis. Prior to analysis of results, patients had their MDCT examinations evaluated twice by the same reviewer and also by a second reviewer for evaluation of intraobserver and interobserver variability of measurements.

[2] = test system: inflammatory genes, including IL-6, IL 8, IL-10, MMP9, I-kappa-B, osteopontin; assay: Inflammatory gene expression in carotid plaques (TaqMan), Phase 2 CEA study; format: in vivo, human; conditions: rupture-prone plaque subtypes, 100 mg qd oral, 12 weeks
Protocol: In this randomized, double blind, placebo-controlled study, 50 patients with significant carotid artery stenosis (60-90%) were treated once daily for 12 weeks with orally administered 100 mg N-[3-[5-[(4-fluorophenyl)methyl]-2-thienyl]-1-methyl-2-propynyl]-N-hydroxyurea or placebo prior to undergoing CEA, at which time endarterectomy tissue (plaque) was collected and stored for subsequent tissue analysis. Baseline assessments are performed at the start of treatment and these baseline results were compared with repeat assessments during various follow-up periods of treatment. The treatment was conducted for twelve weeks at which time these baseline assessments were performed and compared.
At the end of 12 weeks treatment with 100 mg of N-[3-[5-[(4-fluorophenyl)methyl]-2-thienyl]-1-methyl-2-propynyl]-N-hydroxyurea, patients underwent CEA, at which time endarterectomy tissue (plaque) was collected, fixed in 10% formalin and paraffin blocks, and stored for subsequent tissue analysis. […] A portion of each of the plaques was also analyzed for inflammatory gene expression after isolation of total RNA and reverse transcription using a TaqMan® High Capacity cDNA assay.
LTB4, LTE4 and hsCRP biomarker data were assessed using change from baseline comparisons and an ANCOVA was used to compare the treatment groups where the covariate was the baseline value of the outcome measure. […]

Structure (SMILES): CC(C#Cc1ccc(Cc2ccc(F)cc2)s1)N(O)C(N)=O (centres unmarked) [VIA-2291, N-[3-[5-[(4-fluorophenyl)methyl]-2-thienyl]-1-methyl-2-propynyl]-N-hydroxyurea]
- inhibition of ex vivo LTB4 (leukotriene B4 (LTB4); 100-mg group, in >90% of patients): approximately 80%
- ex vivo leukotriene LTB4 (leukotriene B4 (LTB4); all doses (25, 50, 100 mg qd), P<0.0001, dose-dependent): significantly reduced
- urinary leukotriene LTE4 (leukotriene E4 (LTE4)): significantly reduced
- hsCRP within group between 12 and 24 weeks ([1]; 100 mg group, P<0.01): significant reduction
- decrease in hsCRP compared with placebo ([1]; 100-mg group at 24 weeks, P=0.0002): 67%
- new plaque lesions compared with placebo (non-calcified plaque): reduced
- non-calcified plaque volume compared with placebo (non-calcified plaque): reduced
- expression of inflammatory genes, including IL-6, IL 8, IL-10, MMP9, I-kappa-B, osteopontin [2]: reduction in expression
